Laboratory results: patent US20230248834A1, “DEGRADATION OF (EGFR) BY CONJUGATION OF EGFR INHIBITORS WITH E3 LIGASE LIGAND AND METHODS OF USE” (BEIGENE, LTD., priority 2020, published 2023)
Where two headings read alike, the source gives them in different places.

Key:
Format in all cases: cell-based
EGFR L858R/C797S = biological target: T1, EGFR L858R/C797S (Homo sapiens, UniProt P00533, C797S/L858R); assay: EGFR degradation HTRF assay in BaF3 LC cells; details: for DC50: 16 h treatment, HTRF
T1 construct: expressed in transfected cells; host or cells: BaF3 LC
Outline: (§1)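 BaF3 cells expressing EGFR L858R/C797S or L858R/T790M/C797S treated 16 h at 37 °C with compounds (top 10 uM, 5-fold, 8 doses; 0.2% DMSO). Remaining EGFR quantified by HTRF in lysates after overnight antibody incubation. Degradation percentage versus DMSO controls; DC50 from four-parameter fit, Dmax as maximal degradation.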

EGFR L858R/T790M/C797S = biological target: T2, EGFR L858R/T790M/C797S (Homo sapiens, UniProt P00533, C797S/L858R/T790M); assay: EGFR degradation HTRF assay in BaF3-LTC cells; details: for Dmax: read-out: BaF3-LTC Dmax (%)
T2 construct: expressed in transfected cells; host or cells: BaF3-LTC
Outline: as §1

EGFR Del19/C797S = assay: EGFR degradation HTRF assay in H1975-clone #23 (H1975 #23 DC); details: H1975-clone #23 (Del19/C797S); for DC50: 16 h treatment, HTRF; for H1975 #23 DC Dmax (%): maximum percentage of inhibition (degradation)
Description: (§2) Cell Line Generation H1975-clone #28(Del19/T790M/C797S) and H1975-clone #23(Del19/C797S). EGFR-Del19/T790M/C797S and EGFR-Del19/C797S were stably expressed in H1975 cell lines by lentivirus-mediated over-expression, respectively. The EGFR over-expressed cells then underwent gene knockout, in which the EGFR targeting sgRNA was designed to only target the endogenous EGFR copies and preserve the exogenous EGFR copies. Followed by the gene knockout, the edited H1975 cells were seeded in 96 well plates at the concentration of 1 cell/well, cultured for about 2 weeks to allow single clones formation. The formed clones were screened by DNA sequencing and whole exon sequencing analysis for the desired edition. H1975-clone #28 and H1975-clone #23 were finally confirmed as homozygous Del19/T790M/C797S EGFR and Del19/C797S EGFR clones, respectively.
(§3) After 16 h treatment, add HTRF lysis buffer to each well; seal the plate and incubate 1 hour at room temperature on a plate shaker; Once the cells are lysed, 16 μL of cell lysate are transferred to a PE 384-well HTRF detection plate; 4 μL of pre-mixed HTRF antibodies are added to each well; Cover the plate with a plate sealer, spin 1000 rpm for 1 min, Incubate overnight at room temperature; Read on BMG PheraStar with HTRF protocol (337 nm-665 nm-620 nm).
(§4) The inhibition (degradation) percentage of the compound was calculated by the following equation: Inhibition percentage of Compound=100−100×(Signal−low control)/(High control−low control), wherein signal=each test compound group
(§5) High control=Cell group with added DMSO and without compound, indicating microplate readings without EGFR degradation;
(§6) Dmax is the maximum percentage of inhibition (degradation).
(§7) The IC50 (DC50) value of a compound can be obtained by fitting the following equation
(§8) Y=Bottom+(TOP−Bottom)/(1+((IC50/X)^hillslope))
Wherein, X and Y are known values, and IC50, Hillslope, Top and Bottom are the parameters obtained by fitting with software. Y is the inhibition percentage (calculated from the equation), X is the concentration of the compound; IC50 is the concentration of the compound when the 50% inhibition is reached. The smaller the IC50 value is, the stronger the inhibitory ability of the compound is. Vice versa, the higher the IC50 value is, the weaker the inhibitory ability of the compound is; Hillslope represents the slope of the fitted curve, generally around 1*; Bottom represents the minimum value of the curve obtained by data fitting, which is generally 0%±20%; Top represents the maximum value of the curve obtained by data fitting, which is generally 100%±20%. The experimental data were fitted by calculating and analyzing with Dotmatics data analysis software.

EGFR Del19/T790M/C797S = assay: EGFR degradation HTRF assay in H1975-clone #28 (H1975 #28 DTC); details: H1975-clone #28 (Del19/T790M/C797S), maximum percentage of inhibition (degradation)
Description: as §2, §3, §4, §5, §6, §7, §8
Wherein, X and Y are known values, and IC50, Hillslope, Top and Bottom are the parameters obtained by fitting with software. […]

[1] = BaF3 LC (L858R/C797S), maximum percentage of inhibition (degradation), read-out: BaF3 LC Dmax (%)
[2] = BaF3-LTC (L858R/T790M/C797S), maximum percentage of inhibition (degradation)

T2 sequence (P00533 25-1210 T790M/C797S/L858R): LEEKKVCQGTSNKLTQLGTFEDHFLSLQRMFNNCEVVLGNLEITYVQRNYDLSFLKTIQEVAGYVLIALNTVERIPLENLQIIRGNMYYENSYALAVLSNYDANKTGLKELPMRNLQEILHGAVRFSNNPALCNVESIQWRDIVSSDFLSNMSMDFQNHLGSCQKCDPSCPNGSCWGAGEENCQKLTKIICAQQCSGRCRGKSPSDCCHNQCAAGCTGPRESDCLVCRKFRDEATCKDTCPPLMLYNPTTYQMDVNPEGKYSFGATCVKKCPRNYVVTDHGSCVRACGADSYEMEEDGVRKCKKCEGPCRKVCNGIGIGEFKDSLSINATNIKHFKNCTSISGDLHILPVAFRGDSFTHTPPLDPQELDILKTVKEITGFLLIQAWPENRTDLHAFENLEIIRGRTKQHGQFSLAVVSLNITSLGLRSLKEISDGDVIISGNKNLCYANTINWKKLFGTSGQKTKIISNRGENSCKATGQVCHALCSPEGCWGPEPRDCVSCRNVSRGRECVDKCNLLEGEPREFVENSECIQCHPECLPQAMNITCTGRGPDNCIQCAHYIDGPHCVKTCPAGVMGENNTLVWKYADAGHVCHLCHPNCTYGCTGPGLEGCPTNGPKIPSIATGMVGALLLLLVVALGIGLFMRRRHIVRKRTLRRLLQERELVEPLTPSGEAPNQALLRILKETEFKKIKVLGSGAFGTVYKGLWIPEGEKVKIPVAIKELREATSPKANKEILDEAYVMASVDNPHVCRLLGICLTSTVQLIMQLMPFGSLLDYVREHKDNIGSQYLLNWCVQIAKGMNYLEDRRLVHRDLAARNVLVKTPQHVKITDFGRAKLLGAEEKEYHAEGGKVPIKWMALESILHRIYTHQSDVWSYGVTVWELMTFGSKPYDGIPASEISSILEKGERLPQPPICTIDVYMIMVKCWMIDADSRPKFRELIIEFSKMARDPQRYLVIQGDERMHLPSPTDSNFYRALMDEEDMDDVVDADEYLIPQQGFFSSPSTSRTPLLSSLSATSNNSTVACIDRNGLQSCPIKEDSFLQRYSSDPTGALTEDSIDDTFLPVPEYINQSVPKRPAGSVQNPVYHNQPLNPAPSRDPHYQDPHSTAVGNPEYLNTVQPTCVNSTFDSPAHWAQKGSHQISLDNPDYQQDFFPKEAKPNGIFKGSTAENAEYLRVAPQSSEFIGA
T1 sequence (P00533 25-1210 C797S/L858R): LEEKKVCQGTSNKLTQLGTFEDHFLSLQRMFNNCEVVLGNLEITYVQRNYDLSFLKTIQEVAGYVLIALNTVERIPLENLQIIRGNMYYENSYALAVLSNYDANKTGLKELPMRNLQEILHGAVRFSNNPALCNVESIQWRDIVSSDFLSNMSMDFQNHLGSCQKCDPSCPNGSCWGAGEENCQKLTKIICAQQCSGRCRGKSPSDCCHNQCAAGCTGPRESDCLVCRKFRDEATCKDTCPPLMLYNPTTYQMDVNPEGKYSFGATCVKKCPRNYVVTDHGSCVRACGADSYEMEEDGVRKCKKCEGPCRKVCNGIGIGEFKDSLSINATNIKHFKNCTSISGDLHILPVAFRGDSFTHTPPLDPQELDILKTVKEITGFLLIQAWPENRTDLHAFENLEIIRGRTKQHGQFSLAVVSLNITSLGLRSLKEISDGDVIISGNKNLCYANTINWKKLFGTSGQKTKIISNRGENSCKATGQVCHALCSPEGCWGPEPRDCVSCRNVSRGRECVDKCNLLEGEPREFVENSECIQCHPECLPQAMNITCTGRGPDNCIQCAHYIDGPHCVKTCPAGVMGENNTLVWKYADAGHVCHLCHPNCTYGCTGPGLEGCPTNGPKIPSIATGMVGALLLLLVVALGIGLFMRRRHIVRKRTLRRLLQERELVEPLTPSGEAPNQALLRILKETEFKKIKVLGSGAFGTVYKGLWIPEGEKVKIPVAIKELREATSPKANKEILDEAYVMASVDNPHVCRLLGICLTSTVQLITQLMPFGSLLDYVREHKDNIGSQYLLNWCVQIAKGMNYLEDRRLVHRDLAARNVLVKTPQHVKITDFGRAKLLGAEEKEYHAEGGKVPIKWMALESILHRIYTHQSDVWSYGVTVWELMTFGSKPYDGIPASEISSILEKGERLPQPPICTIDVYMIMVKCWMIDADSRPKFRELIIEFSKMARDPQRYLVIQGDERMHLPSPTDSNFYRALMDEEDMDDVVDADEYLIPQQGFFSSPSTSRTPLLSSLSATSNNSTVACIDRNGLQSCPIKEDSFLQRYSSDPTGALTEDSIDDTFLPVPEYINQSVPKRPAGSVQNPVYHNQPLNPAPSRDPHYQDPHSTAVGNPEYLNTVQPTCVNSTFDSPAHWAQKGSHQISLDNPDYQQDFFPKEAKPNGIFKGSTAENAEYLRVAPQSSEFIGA

SMILES | DC50 (EGFR L858R/C797S; BaF3 LC (L858R/C797S)) [nM] | Dmax (EGFR L858R/C797S; [1]) [%] | DC50 (EGFR L858R/T790M/C797S; BaF3-LTC (L858R/T790M/C797S), 16 h treatment, HTRF) [nM] | Dmax (EGFR L858R/T790M/C797S; [2]) [%] | DC50 (EGFR Del19/C797S) [nM] | H1975 #23 DC Dmax (%) (EGFR Del19/C797S) | H1975 # 28 DTC Dmax (%) (EGFR Del19/T790M/C797S) | Dmax (EGFR L858R/T790M/C797S) [%] | Dmax (EGFR L858R/C797S; BaF3, read-out: BaF3 LC Dmax (%)) [%]
CCc1cc(Nc2ncc(Br)c(Nc3ccc4nc(C)ccc4c3P(C)(C)=O)n2)c(OC2CC2)cc1N1CCC(N2CCN(CCc3cc(F)c([C@H]4CCC(=O)NC4=O)c(F)c3)CC2)CC1 [Example 459, (R)-3-(4-(2-(4-(1-(4-((5-bromo-4-((5-(dimethylphosphoryl)-2-methylquinolin-6-yl)amino)pyrimidin-2-yl)amino)-5-cyclopropoxy-2-ethylphenyl)piperidin-4-yl)piperazin-1-yl)ethyl)-2,6-difluorophenyl)piperidine-2,6-dione] | 20.7 | 76.6 | 7.54 | 86.9 | 6.01 | 91.45 | – | – | –
CCOc1cc(N2CCC(N3CCN(CCc4cccc5c4oc(=O)n5C4CCC(=O)NC4=O)CC3)CC2)c(CC)cc1Nc1ncc(Br)c(Nc2ccc3nc(CC)ncc3c2P(C)(C)=O)n1 (stereo not drawn) [Example 563, 3-(7-(2-(4-(1-(4-((5-bromo-4-((5-(dimethylphosphoryl)-2-ethylquinazolin-6-yl)amino)pyrimidin-2-yl)amino)-5-ethoxy-2-ethylphenyl)piperidin-4-yl)piperazin-1-yl)ethyl)-2-oxobenzo[d]oxazol-3(2H)-yl)piperidine-2,6-dione] | – | – | – | – | – | – | 81.88 | 92.6 | –
CCOc1cc(N2CCC(N3CCN(CC4CN(c5cccc6c5oc(=O)n6C5CCC(=O)NC5=O)C4)CC3)CC2)c(CC)cc1Nc1ncc(Br)c(Nc2ccc3nc(CC)ncc3c2P(C)(C)=O)n1 (stereo not drawn) [Example 566, 3-(7-(3-((4-(1-(4-((5-bromo-4-((5-(dimethylphosphoryl)-2-ethylquinazolin-6-yl)amino)pyrimidin-2-yl)amino)-5-ethoxy-2-ethylphenyl)piperidin-4-yl)piperazin-1-yl)methyl)azetidin-1-yl)-2-oxobenzol[d]oxazol-3(2H)-yl)piperidine-2,6-dione] | – | – | – | – | – | – | 84.02 | 93.9 | –
COc1cc(N2CCC3(CCN(CCCCCOc4cccc5c4CN(C4CCC(=O)NC4=O)C5=O)CC3)CC2)c(C)cc1Nc1ncc(Br)c(Nc2ccc3nccnc3c2P(C)(C)=O)n1 (stereo not drawn) [Example 542, 3-(4-((5-(9-(4-((5-bromo-4-((5-(dimethylphosphoryl)quinoxalin-6-yl)amino)pyrimidin-2-yl)amino)-5-methoxy-2-methylphenyl)-3,9-diazaspiro[5.5]undecan-3-yl)pentyl)oxy)-1-oxoisoindolin-2-yl)piperidine-2,6-dione] | 16.2 | 90 | – | 95.6 | > 10000 | 31.04 | – | – | –
CCc1ncc2c(P(C)(C)=O)c(Nc3nc(Nc4cc(CC)c(N5CCC(N6CCN(CCc7ccc8c(c7)oc(=O)n8C7CCC(=O)NC7=O)CC6)CC5)cc4OC)ncc3Br)ccc2n1 (stereo not drawn) [Example 499, 3-(6-(2-(4-(1-(4-((5-bromo-4-((5-(dimethylphosphoryl)-2-ethylquinazolin-6-yl)amino)pyrimidin-2-yl)amino)-2-ethyl-5-methoxyphenyl)piperidin-4-yl)piperazin-1-yl)ethyl)-2-oxobenzo[d]oxazol-3(2H)-yl)piperidine-2,6-dione] | – | – | – | – | – | – | 77.41 | 87.8 | 91
